# Data: patent US8946282B2, “Indolin-2-one derivatives as protein kinase inhibitors” (Annji Pharmaceutical Co., Ltd., priority 2012, dated 2015)
# Experiments:
# [1] = biological target: aurora B (Homo sapiens, UniProt Q96GD4); test: radioisotope-based P81 filter-binding assay, aurora B kinase; assay type: biochemical; details: averaged from two independent dose-response curves; read-out: Enzyme assay IC50 Aur B
# Protocol: (§1) Compounds of formula (I)-(IV) were evaluated for abilities in inhibiting protein kinases aurora B and FLT-3 activity using radioisotope-based P81 filter-binding assay (Table 1).
# [2] = system: HCT116 human colorectal carcinoma cells; test: anti-proliferation, SRB colorimetric assay, HCT116; assay type: cell-based; details: HCT-116, concentration required for 50% growth inhibition, read-out: IC50 (μM, mean ± S.D.)
# Protocol: (§2) HCT116 human colorectal carcinoma cells (Table 3), HepG2 human hepatocellular carcinoma cells (Table 4), and MV4-11 human acute myelomonocytic leukemia cells (Table 5). Cells were treated with the test compound and the concentration required for 50% growth inhibition (IC50) determined by sulfomodamine B (SRB) colorimetric assay.
# [3] = system: Huh7 cancer cell line; test: in vivo efficacy, Huh7 xenografts in SCID mice; details: established xenografts of Huh7 cancer cell line in female SCID mice
# [4] = system: MV4-11 human acute myelomonocytic leukemia cells; test: anti-proliferation, SRB colorimetric assay, MV4-11; assay type: cell-based; details: concentration required for 50% growth inhibition
# Protocol: as §2
# [5] = system: HepG2 human hepatocellular carcinoma cells; test: anti-proliferation, SRB colorimetric assay, HepG2; assay type: cell-based; details: concentration required for 50% growth inhibition, read-out: IC50 (μM, mean ± S.D.)
# Description: HCT116 human colorectal carcinoma cells (Table 3), HepG2 human hepatocellular carcinoma cells (Table 4), and MV4-11 human acute myelomonocytic leukemia cells (Table 5).
# [6] = system: A549 human lung carcinoma cells; test: anti-proliferation, SRB colorimetric assay, A549; assay type: cell-based; details: concentration required for 50% growth inhibition, read-out: IC50 (μM, mean ± S.D.)
# [7] = biological target: T1, FLT-3 (Homo sapiens, UniProt P36888); test: radioisotope-based P81 filter-binding assay, FLT-3 kinase; assay type: biochemical; details: averaged from two independent dose-response curves; read-out: Enzyme assay IC50 FLT-3
# T1 sequence (P36888 27-993): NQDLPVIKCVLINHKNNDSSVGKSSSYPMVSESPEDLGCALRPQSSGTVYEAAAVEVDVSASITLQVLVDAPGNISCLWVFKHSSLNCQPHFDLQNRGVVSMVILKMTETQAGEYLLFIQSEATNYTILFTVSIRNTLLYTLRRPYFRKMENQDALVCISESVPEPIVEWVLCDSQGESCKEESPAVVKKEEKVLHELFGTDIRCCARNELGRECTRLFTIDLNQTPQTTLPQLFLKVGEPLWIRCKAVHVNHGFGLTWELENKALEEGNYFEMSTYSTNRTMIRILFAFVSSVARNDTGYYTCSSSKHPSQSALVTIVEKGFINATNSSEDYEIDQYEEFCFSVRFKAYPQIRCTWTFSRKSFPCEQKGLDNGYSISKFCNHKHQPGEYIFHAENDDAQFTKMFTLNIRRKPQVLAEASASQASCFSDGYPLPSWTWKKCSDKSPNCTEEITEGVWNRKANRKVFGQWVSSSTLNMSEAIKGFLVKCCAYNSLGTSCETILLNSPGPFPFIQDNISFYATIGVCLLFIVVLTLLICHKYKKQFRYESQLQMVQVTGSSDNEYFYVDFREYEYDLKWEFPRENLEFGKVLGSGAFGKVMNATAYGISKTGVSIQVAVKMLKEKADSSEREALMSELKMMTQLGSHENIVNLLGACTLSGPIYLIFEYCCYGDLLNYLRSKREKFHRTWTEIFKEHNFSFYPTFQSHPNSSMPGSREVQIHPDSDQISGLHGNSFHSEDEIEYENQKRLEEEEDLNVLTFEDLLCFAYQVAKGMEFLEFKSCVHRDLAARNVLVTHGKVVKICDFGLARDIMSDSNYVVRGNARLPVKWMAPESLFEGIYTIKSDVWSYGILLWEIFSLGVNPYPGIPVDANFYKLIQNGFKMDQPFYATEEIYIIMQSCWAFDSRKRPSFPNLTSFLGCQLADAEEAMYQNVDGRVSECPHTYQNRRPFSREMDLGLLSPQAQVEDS
# Protocol: as §1
# Chain of aurora B (Q96GD4 whole entry): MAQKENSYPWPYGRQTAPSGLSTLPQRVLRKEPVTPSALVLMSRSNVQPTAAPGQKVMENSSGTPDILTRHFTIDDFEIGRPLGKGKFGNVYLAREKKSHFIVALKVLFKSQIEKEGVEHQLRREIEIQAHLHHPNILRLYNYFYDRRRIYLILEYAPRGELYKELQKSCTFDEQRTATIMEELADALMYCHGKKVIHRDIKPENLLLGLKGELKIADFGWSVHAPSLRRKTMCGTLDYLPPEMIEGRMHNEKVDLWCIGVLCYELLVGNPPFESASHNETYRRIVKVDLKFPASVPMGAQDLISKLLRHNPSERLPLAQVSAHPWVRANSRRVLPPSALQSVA
Structure (SMILES),IC50 [1] [µM],IC50 [2] [µM],melting point [°C],IC50 [4] [µM],IC50 [5] [µM],IC50 [6] [µM],IC50 [7] [µM],tumor size [3]
"Cc1ccc(-c2c[nH]cc(C(=O)Nc3ccc4c(c3)NC(=O)/C4=C\c3ccc[nH]3)c2=O)cc1 [D131, (Z)—N-(3-((1H-pyrrol-2-yl)methylene)-2-oxoindolin-6-yl)-5-p-tolyl-4-oxo-1,4-dihydropyridine-3-carboxamide]",0.0632,0.56 ± 0.03,> 300,0.0184,0.71 ± 0.07,0.52 ± 0.03,0.0747,
"O=C1Nc2cc(NC(=O)c3c[nH]cc(-c4cccc(Cl)c4)c3=O)ccc2/C1=C/c1ccc[nH]1 [D132, (Z)—N-(3-((1H-pyrrol-2-yl)methylene)-2-oxoindolin-6-yl)-5-(3-chlorophenyl)-4-oxo-1,4-dihydropyridine-3-carboxamide]",0.161,0.63 ± 0.03,> 300,0.0091,0.55 ± 0.03,0.5 ± 0.01,0.148,
"O=C1Nc2cc(NC(=O)c3c[nH]cc(-c4ccc(F)cc4F)c3=O)ccc2/C1=C/c1ccc[nH]1 [D135, (Z)—N-(3-((1H-pyrrol-2-yl)methylene)-2-oxoindolin-6-yl)-4-oxo-5-(2,4-difluorophenyl)-1,4-dihydropyridine-3-carboxamide]",0.0645,0.78 ± 0.1,> 300,0.00425,0.56 ± 0.16,0.59 ± 0.09,0.0501,

# These reach a lower IC50 [1]. Values come first.
IC50 [1] [µM],IC50 [2] [µM],melting point [°C],IC50 [4] [µM],IC50 [5] [µM],IC50 [6] [µM],IC50 [7] [µM],Structure (SMILES),tumor size [3]
0.0538,0.57 ± 0.04,> 300,0.00438,0.67 ± 0.05,< 0.1,0.0076,"O=C1Nc2cc(NC(=O)c3c[nH]cc(-c4ccc(Cl)cc4)c3=O)ccc2/C1=C/c1ccc[nH]1 [D130, (Z)—N-(3-((1H-pyrrol-2-yl)methylene)-2-oxoindolin-6-yl)-5-(4-chlorophenyl)-4-oxo-1,4-dihydropyridine-3-carboxamide]",
0.0255,0.73 ± 0.09,> 300,0.0132,0.6 ± 0.07,0.46 ± 0.06,0.1,"O=C1Nc2cc(NC(=O)c3c[nH]cc(-c4ccccc4F)c3=O)ccc2/C1=C/c1ccc[nH]1 [D134, (Z)—N-(3-((1H-pyrrol-2-yl)methylene)-2-oxoindolin-6-yl)-4-oxo-5-(2-fluorophenyl)-1,4-dihydropyridine-3-carboxamide]",suppressed the tumor size
0.0102,0.63 ± 0.09,> 300,0.025,0.81 ± 0.04,0.62 ± 0.06,0.0249,"COc1ccc(-c2c[nH]cc(C(=O)Nc3ccc4c(c3)NC(=O)/C4=C\c3ccc[nH]3)c2=O)cc1 [D128, (Z)—N-(3-((1H-pyrrol-2-yl)methylene)-2-oxoindolin-6-yl)-5-(4-methoxyphenyl)-4-oxo-1,4-dihydropyridine-3-carboxamide]",
